Source: US20040121946A9, “Inducing cellular immune responses to her2/neu using peptide and nucleic acid compositions” (priority 2002, published 2004)
pIC50: −log10 of the molar value. Like-named read-outs stand apart in the source and are kept apart here. Where a SMILES comes first, the peptide text is derived from it. Where no end group is shown, it is not given here. [ ]: non-standard residue; d: D form. Abu = CC[C@H](N)C(=O)O

How the values were obtained:
[1] = test system: A3-supertype alleles (A*0301, A*1101, A*3101, A*3301, A*6801); experiment: A3-supertype cross-reactive binding; design: species or system human; settings: of five A3-supertype alleles tested
HLA-A*3101 = HLA-A*3101 (Homo sapiens, UniProt P04439, A270S/D185E/E176V/E277Q/F33T/G231S/G80R/H175R/I121M/I218V/I322F/K168Q/L300P/L318F/M331R/P217A/Q94H/R138Q/T323A/T345S/T97I/V358M); format: binding; settings: Table XXIII, HLA-A3 supermotif-bearing peptides
HLA-A*0301 = HLA-A*0301 (Homo sapiens, UniProt P04439); format: binding; settings: Table XXIII, HLA-A3 supermotif-bearing peptides
HLA-A*3301 = HLA-A*3301 (Homo sapiens, UniProt P04439, A270S/D185E/E176V/E277Q/E87N/F33T/G231S/H175R/I121M/I218V/I322F/K168Q/K210R/L300P/L318F/M331R/P217A/Q86R/Q94H/R138Q/T323A/T345S/T97I/V358M/Y195H); format: binding; settings: Table XXIII, HLA-A3 supermotif-bearing peptides
HLA-A*6801 = HLA-A*6801 (Homo sapiens, UniProt P04439, A269V/D185E/E176V/E277Q/E87N/F33Y/G231S/I121M/I166T/I218V/L180W/L300P/L318F/N151K/P208A/P217A/Q86R/R169H/T345S); format: binding; settings: Table XXIII, HLA-A3 supermotif-bearing peptides
HLA-A*1101 = HLA-A*1101 (Homo sapiens, UniProt P04439, A114D/D185E/E176A/F33Y/L180Q/S129P/T187R); format: binding; settings: Table XXIII, HLA-A3 supermotif-bearing peptides
HLA-A*0201 = HLA-A*0201 (Homo sapiens, UniProt P04439, D140Y/D185E/D98H/E176V/E277Q/G131W/G231S/I119V/I121R/I166T/I218V/L300P/L318F/N151K/N90K/P208A/P217A/Q86G/Q94H/R138H/R169H/T345S); format: binding
HLA-A*0206 = HLA-A*0206 (Homo sapiens, UniProt P04439, D140Y/D185E/D98H/E176V/E277Q/F33Y/G131W/G231S/I119V/I121R/I166T/I218V/L300P/L318F/N151K/N90K/P208A/P217A/Q86G/Q94H/R138H/R169H/T345S); format: binding
[2] = test system: tumor targets that endogenously express HER2/neu (colon adenocarcinoma cell lines SW403 and HT-29); experiment: Primary in vitro CTL induction, recognition of wild-type peptide and endogenous tumor targets (51Cr release / in situ IFNγ ELISA); format: cell-based, human; settings: number of donors yielding a positive response/total tested; normal donors
[3] = test system: peptide-pulsed target cells and transfected cells endogenously expressing the antigen; experiment: Recall CTL responses of PBMCs from ovarian cancer patients; format: cell-based, human; settings: data from ovarian cancer patients
HLA-A*0203 = HLA-A*0203 (Homo sapiens, UniProt P04439, A173T/D140Y/D185E/D98H/E277Q/G131W/G231S/I119V/I121R/I166T/I218V/L180W/L300P/L318F/N151K/N90K/P208A/P217A/Q86G/Q94H/R138H/R169H/T345S); format: binding
[4] = HLA-A2 supermotif-bearing peptides, Table XXVII
[5] = Table XXII, A2 supermotif peptides and analogs

| Compound | No. of A3 Alleles Crossbound [1] | pIC50 (HLA-A*3101) | pIC50 (HLA-A*0301) | pIC50 (HLA-A*3301) | pIC50 (HLA-A*6801) | pIC50 (HLA-A*1101) | other results |
| --- | --- | --- | --- | --- | --- | --- | --- |
| VLLGVVFGV | – | – | – | – | – | – | pIC50 (HLA-A*0201; [4]): 8.62; pIC50 (HLA-A*0206; Table XXVII): 8.22 |
| CC(C)C[C@H](NC(=O)[C@H](CCC(N)=O)NC(=O)[C@@H](NC(=O)[C@@H](NC(=O)[C@H](CO)NC(=O)[C@@H](NC(=O)[C@H](CC(C)C)NC(=O)[C@@H](N)CS)[C@@H](C)O)[C@@H](C)O)C(C)C)C(=O)N[C@H](C(=O)O)C(C)C | – | – | – | – | – | – | CTL Tumor [2]: 0/4; CTL Wildtype [2]: 1/4; CTL Wildtype [3]: 1/2 |
| H-QLMPYGCLL-OH [Her2/neu.799] | – | – | – | – | – | – | pIC50 (HLA-A*0203; [5]): 6.94; pIC50 (HLA-A*0206; [5]): 6.15 |
| CC[C@H](C)[C@H](N)C(=O)N[C@@H](CO)C(=O)N[C@@H](Cc1c[nH]c2ccccc12)C(=O)N[C@@H](CC(C)C)C(=O)NCC(=O)N[C@@H](CC(C)C)C(=O)N[C@@H](CCCNC(=N)N)C(=O)N[C@@H](CO)C(=O)N[C@@H](CC(C)C)C(=O)N[C@@H](CCCNC(=N)N)C(=O)O [Her2/neu.450] | 4 | 8.16 | 6.57 | 6.65 | 7.14 | 5.65 | – |
| CC(C)C[C@H](NC(=O)[C@H](CO)NC(=O)CNC(=O)[C@H](Cc1ccccc1)NC(=O)[C@@H](NC(=O)[C@@H](N)CCCCN)[C@@H](C)O)C(=O)N[C@@H](C)C(=O)N[C@@H](Cc1ccccc1)C(=O)N[C@H](C(=O)O)C(C)C | – | – | – | – | – | – | pIC50 (HLA-A*0203; Table XXVII): 6.00; pIC50 (HLA-A*0201; [4]): 7.46 |
| AVPLDSTFYK [Her2/neU.997.V2K10] | 2 | 5.82 | 6.26 | 4.65 | 6.64 | 7.48 | – |
| CC[C@H](C)[C@H](NC(=O)[C@H](CCC(=O)O)NC(=O)[C@@H](NC(=O)[C@H](CC(C)C)NC(=O)[C@@H](N)CO)[C@@H](C)O)C(=O)N[C@@H](CC(C)C)C(=O)N[C@@H](CCCCN)C(=O)NCC(=O)NCC(=O)N[C@H](C(=O)O)C(C)C [Her2/neu.144] | – | – | – | – | – | – | pIC50 (HLA-A*0203; [5]): 7.66 |
| CC[C@H](C)[C@H](NC(=O)[C@H](CCSC)NC(=O)[C@H](Cc1c[nH]c2ccccc12)NC(=O)[C@H](CS)NC(=O)[C@H](CCCCN)NC(=O)[C@@H](NC(=O)[C@H](CCSC)NC(=O)[C@@H](NC(=O)[C@H](CCSC)NC(=O)[C@@H](N)Cc1ccc(O)cc1)[C@@H](C)CC)C(C)C)C(=O)O | – | – | – | – | – | – | CTL Tumor [2]: 0/1; CTL Wildtype [2]: 0/1; CTL Tumor [3]: 2/2; CTL Wildtype [3]: 2/2 |
| CC[C@H](C)[C@H](N)C(=O)N[C@H](C(=O)N[C@@H](Cc1c[nH]c2ccccc12)C(=O)N[C@@H](CC(C)C)C(=O)NCC(=O)N[C@@H](CC(C)C)C(=O)N[C@@H](CCCNC(=N)N)C(=O)N[C@@H](CO)C(=O)N[C@@H](CC(C)C)C(=O)N[C@@H](CCCCN)C(=O)O)C(C)C [Her2/neu.450.V2K10] | 4 | 6.56 | 8.41 | 5.68 | 7.92 | 6.89 | – |
| CC[C@H](NC(=O)[C@H](CC(C)C)NC(=O)[C@H](C)N)C(=O)N[C@@H](CCCNC(=N)N)C(=O)N[C@@H](Cc1c[nH]c2ccccc12)C(=O)NCC(=O)N[C@@H](CC(C)C)C(=O)N[C@@H](CC(C)C)C(=O)N[C@@H](CC(C)C)C(=O)O [Her2/neu.5.B3] | – | – | – | – | – | – | pIC50 (HLA-A*0203; [5]): 7.92 |
| CC[C@H](NC(=O)CNC(=O)CNC(=O)[C@H](C)NC(=O)[C@H](CC)NC(=O)[C@@H](NC(=O)[C@@H](N)[C@@H](C)O)C(C)C)C(=O)N[C@@H](C)C(=O)N[C@@H](CCCCN)C(=O)O [Her2/neu.218.B3B7K9] (H-TV[Abu]AGG[Abu]AK-OH) | 3 | < 5.00 | 7.62 | < 5.00 | 8.14 | 7.54 | – |
| CC[C@H](NC(=O)CNC(=O)CNC(=O)[C@H](C)NC(=O)[C@H](CC)NC(=O)[C@@H](NC(=O)[C@@H](N)[C@@H](C)O)C(C)C)C(=O)N[C@@H](C)C(=O)N[C@@H](CCCNC(=N)N)C(=O)O [Her2/neu.218.B3B7] (H-TV[Abu]AGG[Abu]AR-OH) | 5 | 6.61 | 6.50 | 6.62 | 8.10 | 6.95 | – |
| CC(C)[C@H](NC(=O)[C@@H](N)[C@@H](C)O)C(=O)N[C@@H](CS)C(=O)N[C@@H](C)C(=O)NCC(=O)NCC(=O)N[C@@H](CS)C(=O)N[C@@H](C)C(=O)N[C@@H](CCCNC(=N)N)C(=O)O [Her2/neu.218] | 4 | 6.89 | < 5.00 | 6.49 | 7.08 | 6.58 | – |
| CC[C@H](NC(=O)[C@@H](NC(=O)[C@H](C)N)[C@@H](C)O)C(=O)N[C@@H](CCCNC(=N)N)C(=O)N[C@@H](Cc1c[nH]c2ccccc12)C(=O)NCC(=O)N[C@@H](CC(C)C)C(=O)N[C@@H](CC(C)C)C(=O)N[C@H](C(=O)O)C(C)C [Her2/neu.5.T2B3V9] (H-AT[Abu]RWGLLV-OH) | – | – | – | – | – | – | pIC50 (HLA-A*0201; [5]): 4.78; pIC50 (HLA-A*0206; [5]): 5.66 |

Second part, led by results:

| No. of A3 Alleles Crossbound [1] | pIC50 (HLA-A*3101) | pIC50 (HLA-A*0301) | pIC50 (HLA-A*3301) | pIC50 (HLA-A*6801) | pIC50 (HLA-A*1101) | Compound | other results |
| --- | --- | --- | --- | --- | --- | --- | --- |
| 4 | 7.47 | 5.13 | 7.30 | 7.74 | 6.71 | CC(C)C[C@H](NC(=O)[C@H](Cc1ccccc1)NC(=O)[C@H](CCC(N)=O)NC(=O)[C@H](CO)NC(=O)[C@H](CS)NC(=O)[C@H](CC(N)=O)NC(=O)[C@@H](NC(=O)[C@@H](N)CS)C(C)C)C(=O)N[C@@H](CCCNC(=N)N)C(=O)O [Her2/neu.528] | – |
| 4 | 7.72 | 5.50 | 7.06 | 8.40 | 7.08 | CC(C)C[C@H](NC(=O)[C@H](CCC(N)=O)NC(=O)[C@H](CC(=O)O)NC(=O)[C@H](Cc1c[nH]c2ccccc12)NC(=O)[C@@H]1CCCN1C(=O)[C@@H](NC(=O)[C@@H](NC(=O)[C@@H](N)Cc1c[nH]cn1)[C@@H](C)O)C(C)C)C(=O)N[C@@H](Cc1ccccc1)C(=O)N[C@@H](CCCNC(=N)N)C(=O)O [Her2/neu.478] | – |
| 4 | 7.22 | 7.47 | 5.37 | 7.82 | 7.66 | CC[C@H](NC(=O)[C@H](CC(N)=O)NC(=O)[C@@H](NC(=O)[C@@H](N)CC)C(C)C)C(=O)N[C@@H](CO)C(=O)N[C@@H](CCC(N)=O)C(=O)N[C@@H](Cc1ccccc1)C(=O)N[C@@H](CC(C)C)C(=O)N[C@@H](CCCCN)C(=O)O [Her2/neu.528.B1B4K9] (H-[Abu]VN[Abu]SQFLK-OH) | – |
| 3 | < 5.00 | 6.74 | < 5.00 | 8.05 | 6.43 | CC(C)C[C@H](NC(=O)[C@H](CCC(N)=O)NC(=O)[C@H](CC(=O)O)NC(=O)[C@H](Cc1c[nH]c2ccccc12)NC(=O)[C@@H]1CCCN1C(=O)[C@@H](NC(=O)[C@@H](NC(=O)[C@@H](N)Cc1c[nH]cn1)C(C)C)C(C)C)C(=O)N[C@@H](Cc1ccccc1)C(=O)N[C@@H](CCCCN)C(=O)O [Her2/neu.478.V2K10] | – |
| 3 | 6.70 | 5.10 | 6.97 | 7.30 | < 5.00 | LVKSPNHVR [Her2/neu.852.R9] | – |
| 5 | 7.42 | 6.75 | 7.24 | 8.00 | 7.10 | CC[C@H](NC(=O)[C@H](CC(N)=O)NC(=O)[C@@H](NC(=O)[C@@H](N)CC)C(C)C)C(=O)N[C@@H](CO)C(=O)N[C@@H](CCC(N)=O)C(=O)N[C@@H](Cc1ccccc1)C(=O)N[C@@H](CC(C)C)C(=O)N[C@@H](CCCNC(=N)N)C(=O)O [Her2/neu.528.B1B4] (H-[Abu]VN[Abu]SQFLR-OH) | – |
